Test results: US20100297225A1, “SUSTAINED-RELEASE PHARMACEUTICAL FORMULATION CONTAINING AN ANTIMUSCARINIC AGENT AND A WETTING AGENT AS WELL AS A PROCESS FOR THE PREPARATION THEREOF” (PHARMATHEN S.A., priority 2007, published 2010)
Structures can show the parent of a compound that is named as a salt.

Assays:
[1] = Flowability and compressibility (Carr's Index); type: physicochemical
Description: The pharmaceutical composition is characterized by excellent pharmacotechnical properties, such as homogeneity, flowability and compressibility.

[2] = X-RD analysis of crystalline form after storage; type: physicochemical; conditions: 3 months storage, normal and accelerated conditions (40°C and 75% RH)
Procedure: As shown in FIG. 1 by the X-RD analysis Tolterodine Tartrate is in crystalline form and all the recorded characteristic broad peaks (approximate 20 values=12.55, 16.40, 20.00, 21.20, 22.75, 23.80, 25.65, 27.45, 34.60 and 37.60) were unchanged after 3 months storage in both normal and accelerated conditions (40° C. and 75% RH). The crystal properties remain also unchanged after three months in the same conditions when the mixture is incorporated in a pharmaceutical composition with other excipients.

## Cc1ccc(O)c([C@H](CCN(C(C)C)C(C)C)c2ccccc2)c1 [Tolterodine Tartrate, (R)—N,N-diisopropyl-3-(2-hydroxy-5-methylphenyl)-3-phenylpropylamine]
[1]
  mean Carr's Index: 38.7%
[2]
  X-RD characteristic peaks of crystalline form after storage: unchanged
